Source: ChEMBL document CHEMBL1201862, “PubChem BioAssay data set” (2004)
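Cultured in 96-well plates, cells were exposed to test compound for 48 hours across five concentrations. At the GI50, growth is halved.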 Active and inactive are the calls of the source. No stated cut-off is given here; in the data, active = GI50 up to about 1.1 µM and inactive = higher.

How the values were obtained:
Assay in all cases: growth of human tumour cells (NCI), 48 h
OVCAR-5 = test system: OVCAR-5
MDA-MB-435 = test system: MDA-MB-435
OVCAR-8 = test system: OVCAR-8
BT-549 = test system: BT-549
Hs-578T = test system: Hs-578T
SW-620 = test system: SW-620
HCT-116 = test system: HCT-116
K562 = test system: K562
NCI-H226 = test system: NCI-H226
RPMI-8226 = test system: RPMI-8226
OVCAR-3 = test system: OVCAR-3
RXF 393 = test system: RXF 393
UACC-257 = test system: UACC-257
SK-MEL-28 = test system: SK-MEL-28
SK-OV-3 = test system: SK-OV-3
Malme-3M = test system: Malme-3M
SK-MEL-5 = test system: SK-MEL-5
MDA-N = test system: MDA-N
SR = test system: SR
MOLT-4 = test system: MOLT-4
HCC 2998 = test system: HCC 2998
PC-3 = test system: PC-3
SN12C = test system: SN12C
HOP-92 = test system: HOP-92
UO-31 = test system: UO-31
DU-145 = test system: DU-145
IGROV-1 = test system: IGROV-1
A498 = test system: A498
SF-268 = test system: SF-268
A549 = test system: A549
NCI-H460 = test system: NCI-H460
MCF7 = test system: MCF7
SF-295 = test system: SF-295
SK-MEL-2 = test system: SK-MEL-2
UACC-62 = test system: UACC-62
ACHN = test system: ACHN
U-251 = test system: U-251
EKVX = test system: EKVX
OVCAR-4 = test system: OVCAR-4
KM12 = test system: KM12
SNB-19 = test system: SNB-19
HCT-15 = test system: HCT-15
NCI-H23 = test system: NCI-H23
COLO 205 = test system: COLO 205
M14 = test system: M14
NCI/ADR-RES = test system: NCI/ADR-RES
CCRF-CEM = test system: CCRF-CEM
HL-60 = test system: HL-60
SF-539 = test system: SF-539
786-0 = test system: 786-0
TK-10 = test system: TK-10
HT-29 = test system: HT-29
NCI-H522 = test system: NCI-H522
SNB-75 = test system: SNB-75
CAKI-1 = test system: CAKI-1
MDA-MB-231 = test system: MDA-MB-231
HOP-62 = test system: HOP-62
T47D = test system: T47D
LOX IMVI = test system: LOX IMVI

Structure (SMILES): O=C1c2ccccc2C(=O)c2c(OCC3CO3)ccc(OCC3CO3)c21 (configuration not stated)
- GI50 (OVCAR-5): 10.5 µM (inactive)
- GI50 (MDA-MB-435): 2.7 µM (inactive)
- GI50 (OVCAR-8): 1.48 µM (inactive)
- GI50 (BT-549): 6.28 µM (inactive)
- GI50 (Hs-578T): 16.2 µM (inactive)
- GI50 (SW-620): 1.1 µM (active)
- GI50 (HCT-116): 1.99 µM (inactive)
- GI50 (K562): 0.982 µM (active)
- GI50 (NCI-H226): 12.4 µM (inactive)
- GI50 (RPMI-8226): 6 µM (inactive)
- GI50 (OVCAR-3): 3.4 µM (inactive)
- GI50 (RXF 393): 3.96 µM (inactive)
- GI50 (UACC-257): 6.04 µM (inactive)
- GI50 (SK-MEL-28): 5.47 µM (inactive)
- GI50 (SK-OV-3): 12.4 µM (inactive)
- GI50 (Malme-3M): 7.74 µM (inactive)
- GI50 (SK-MEL-5): 5.69 µM (inactive)
- GI50 (MDA-N): 3.8 µM (inactive)
- GI50 (SR): 0.113 µM (active)
- GI50 (MOLT-4): 0.0653 µM (active)
- GI50 (HCC 2998): 16.1 µM (inactive)
- GI50 (PC-3): 4.42 µM (inactive)
- GI50 (SN12C): 1.07 µM (active)
- GI50 (HOP-92): 2.67 µM (inactive)
- GI50 (UO-31): 2.94 µM (inactive)
- GI50 (DU-145): 3.18 µM (inactive)
- GI50 (IGROV-1): 3.54 µM (inactive)
- GI50 (A498): 17.9 µM (inactive)
- GI50 (SF-268): 0.346 µM (active)
- GI50 (A549): 3.46 µM (inactive)
- GI50 (NCI-H460): 1.99 µM (inactive)
- GI50 (MCF7): 0.195 µM (active)
- GI50 (SF-295): 2.28 µM (inactive)
- GI50 (SK-MEL-2): 14 µM (inactive)
- GI50 (UACC-62): 2.1 µM (inactive)
- GI50 (ACHN): 0.964 µM (active)
- GI50 (U-251): 2.92 µM (inactive)
- GI50 (EKVX): 12.5 µM (inactive)
- GI50 (OVCAR-4): 6.52 µM (inactive)
- GI50 (KM12): 5.04 µM (inactive)
- GI50 (SNB-19): 7.67 µM (inactive)
- GI50 (HCT-15): 1.74 µM
- GI50 (NCI-H23): 4.12 µM (inactive)
- GI50 (COLO 205): 4.44 µM (inactive)
- GI50 (M14): 1.3 µM (inactive)
- GI50 (NCI/ADR-RES): 2.21 µM (inactive)
- GI50 (CCRF-CEM): < 0.0167 µM (active)
- GI50 (HL-60): 0.118 µM (active)
- GI50 (SF-539): 4.15 µM (inactive)
- GI50 (786-0): 1.48 µM (inactive)
- GI50 (TK-10): 18.8 µM (inactive)
- GI50 (HT-29): 4.84 µM (inactive)
- GI50 (NCI-H522): 3.26 µM (inactive)
- GI50 (SNB-75): 12.4 µM (inactive)
- GI50 (CAKI-1): 1.91 µM (inactive)
- GI50 (MDA-MB-231): 12.5 µM (inactive)
- GI50 (HOP-62): 1.95 µM (inactive)
- GI50 (T47D): 6 µM (inactive)
- GI50 (LOX IMVI): 0.0386 µM (active)

Structure (SMILES): O=C1N[C@@H](c2c[nH]c3ccc(Br)cc23)C(=O)N[C@H]1c1c[nH]c2ccc(Br)cc12
- GI50 (OVCAR-5): 13.9 µM (inactive)
- GI50 (MDA-MB-435): 4.25 µM (inactive)
- GI50 (OVCAR-8): 11.4 µM (inactive)
- GI50 (BT-549): 13.6 µM (inactive)
- GI50 (Hs-578T): 11 µM (inactive)
- GI50 (SW-620): 10.9 µM (inactive)
- GI50 (HCT-116): 7.93 µM (inactive)
- GI50 (K562): 4.47 µM (inactive)
- GI50 (NCI-H226): 10.8 µM (inactive)
- GI50 (RPMI-8226): 7.46 µM (inactive)
- GI50 (OVCAR-3): 9.23 µM (inactive)
- GI50 (RXF 393): 15.6 µM (inactive)
- GI50 (UACC-257): 12 µM (inactive)
- GI50 (SK-MEL-28): 15.1 µM (inactive)
- GI50 (SK-OV-3): 15.9 µM (inactive)
- GI50 (Malme-3M): 14.4 µM (inactive)
- GI50 (SK-MEL-5): 5.38 µM (inactive)
- GI50 (MDA-N): 8.17 µM (inactive)
- GI50 (SR): 4.72 µM (inactive)
- GI50 (MOLT-4): 3.53 µM (inactive)
- GI50 (HCC 2998): 3.61 µM (inactive)
- GI50 (PC-3): 3.6 µM (inactive)
- GI50 (SN12C): 12.4 µM (inactive)
- GI50 (HOP-92): 3.71 µM (inactive)
- GI50 (UO-31): 16.3 µM (inactive)
- GI50 (DU-145): 13.8 µM (inactive)
- GI50 (IGROV-1): 10.9 µM (inactive)
- GI50 (A498): 5.24 µM (inactive)
- GI50 (SF-268): 8.15 µM (inactive)
- GI50 (A549): 13.8 µM (inactive)
- GI50 (NCI-H460): 5.73 µM (inactive)
- GI50 (MCF7): 12.6 µM (inactive)
- GI50 (SF-295): 11.9 µM (inactive)
- GI50 (SK-MEL-2): 13.6 µM (inactive)
- GI50 (UACC-62): 7.26 µM (inactive)
- GI50 (ACHN): 3.68 µM (inactive)
- GI50 (U-251): 9.35 µM (inactive)
- GI50 (EKVX): 13 µM (inactive)
- GI50 (OVCAR-4): 5.73 µM (inactive)
- GI50 (KM12): 5.06 µM (inactive)
- GI50 (SNB-19): 15.2 µM (inactive)
- GI50 (HCT-15): 14.9 µM
- GI50 (NCI-H23): 10.6 µM (inactive)
- GI50 (COLO 205): 7.21 µM (inactive)
- GI50 (M14): 9.12 µM (inactive)
- GI50 (NCI/ADR-RES): 31.4 µM (inactive)
- GI50 (CCRF-CEM): 4.11 µM (inactive)
- GI50 (HL-60): 6.9 µM (inactive)
- GI50 (SF-539): 5.21 µM (inactive)
- GI50 (786-0): 11.5 µM (inactive)
- GI50 (TK-10): 4.06 µM (inactive)
- GI50 (HT-29): 7.5 µM (inactive)
- GI50 (NCI-H522): 6.61 µM (inactive)
- GI50 (SNB-75): 1.55 µM (inactive)
- GI50 (CAKI-1): 12.8 µM (inactive)
- GI50 (MDA-MB-231): 8.87 µM (inactive)
- GI50 (HOP-62): 12 µM (inactive)
- GI50 (T47D): 10.8 µM (inactive)
- GI50 (LOX IMVI): 6.14 µM (inactive)

Structure (SMILES): COC(=O)NC(Cc1ccccc1)NC(=O)OC(C)(C)C (configuration not stated)
- GI50 (OVCAR-5): > 100 µM (inactive)
- GI50 (MDA-MB-435): > 100 µM (inactive)
- GI50 (OVCAR-8): > 100 µM (inactive)
- GI50 (BT-549): > 100 µM (inactive)
- GI50 (Hs-578T): > 100 µM (inactive)
- GI50 (SW-620): > 100 µM (inactive)
- GI50 (HCT-116): > 100 µM (inactive)
- GI50 (K562): > 100 µM (inactive)
- GI50 (NCI-H226): > 100 µM (inactive)
- GI50 (RPMI-8226): > 100 µM (inactive)
- GI50 (OVCAR-3): > 100 µM (inactive)
- GI50 (RXF 393): > 100 µM (inactive)
- GI50 (UACC-257): > 100 µM (inactive)
- GI50 (SK-MEL-28): > 100 µM (inactive)
- GI50 (SK-OV-3): > 100 µM (inactive)
- GI50 (Malme-3M): > 100 µM (inactive)
- GI50 (SK-MEL-5): > 100 µM (inactive)
- GI50 (MDA-N): > 100 µM (inactive)
- GI50 (SR): > 100 µM (inactive)
- GI50 (MOLT-4): > 100 µM (inactive)
- GI50 (HCC 2998): > 100 µM (inactive)
- GI50 (PC-3): > 100 µM (inactive)
- GI50 (SN12C): > 100 µM (inactive)
- GI50 (HOP-92): > 100 µM (inactive)
- GI50 (UO-31): > 100 µM (inactive)
- GI50 (DU-145): > 100 µM (inactive)
- GI50 (IGROV-1): > 100 µM (inactive)
- GI50 (A498): > 100 µM (inactive)
- GI50 (SF-268): > 100 µM (inactive)
- GI50 (A549): > 100 µM (inactive)
- GI50 (NCI-H460): > 100 µM (inactive)
- GI50 (MCF7): > 100 µM (inactive)
- GI50 (SF-295): > 100 µM (inactive)
- GI50 (SK-MEL-2): > 100 µM (inactive)
- GI50 (UACC-62): > 100 µM (inactive)
- GI50 (ACHN): > 100 µM (inactive)
- GI50 (U-251): > 100 µM (inactive)
- GI50 (EKVX): > 100 µM (inactive)
- GI50 (OVCAR-4): > 100 µM (inactive)
- GI50 (KM12): > 100 µM (inactive)
- GI50 (SNB-19): > 100 µM (inactive)
- GI50 (HCT-15): > 100 µM
- GI50 (NCI-H23): > 100 µM (inactive)
- GI50 (COLO 205): > 100 µM (inactive)
- GI50 (M14): > 100 µM (inactive)
- GI50 (NCI/ADR-RES): > 100 µM (inactive)
- GI50 (CCRF-CEM): > 100 µM (inactive)
- GI50 (HL-60): > 100 µM (inactive)
- GI50 (SF-539): > 100 µM (inactive)
- GI50 (786-0): > 100 µM (inactive)
- GI50 (TK-10): > 100 µM (inactive)
- GI50 (HT-29): > 100 µM (inactive)
- GI50 (NCI-H522): 96.4 µM (inactive)
- GI50 (SNB-75): > 100 µM (inactive)
- GI50 (CAKI-1): > 100 µM (inactive)
- GI50 (MDA-MB-231): > 100 µM (inactive)
- GI50 (HOP-62): > 100 µM (inactive)
- GI50 (T47D): > 100 µM (inactive)
- GI50 (LOX IMVI): > 100 µM (inactive)
